Tested on: cellular protein O-GlcNAcylation in STZ-induced diabetic hearts
Assay: Cellular protein O-GlcNAcylation in diabetic mouse hearts by Western blot
Format: in vivo
Details: STZ-induced diabetic mice, insulin 50 units/g per day subcutaneously for 2 weeks
Source text: To rule out any potentially toxic effects of STZ on the heart, several STZ-injected mice were intensively treated with Ultralente human insulin (Eli Lilly and Company, IN) with 50 units/g per day subcutaneously. The insulin treatment commenced on the third day after STZ injection and lasted for 2 weeks. The cellular O-GlcNAcylation in these hearts was compared with that of the non-insulin treated diabetic hearts. In addition, several 20 weeks old male polygenic diabetic NONcNZO10/LtJ mice (The Jackson Laboratory) (see, e.g., Reifsnyder (2002) Diabetes 51:825-832; Leiter (2004) Diabetes 53 Suppl 1:S4-11) were used as a type II diabetic model to investigate the excess O-GlcNAcyaltion level in the diabetic heart independent of STZ administration. These mice developed hyperglycemia at 12-16 weeks. At the sacrifice time, blood glucose levels were above 33.3 mmol/L. Animal procedures were performed in accordance with the guidelines established by the Committee on Animal Research at the University of California, San Diego. […]
Twenty μg of protein was mixed with Laemmli sample buffer at room temperature for 10 min (samples for anti-O-GlcNAc antibody detection was heated at 70° C. for 10 min) and then loaded onto 4-10% gradient Tris/glycine gels. […] Films were scanned and analyzed by IMAGE-J™ software (NIH).

Substance: insulin: Ultralente human insulin (Eli Lilly and Company)
- excess O-GlcNAcylation of cellular protein in diabetic hearts: prevented

From patent publication US7919475B2, “Compositions and methods for improving heart function” (The Regents of The University of California, priority 2004, dated 2011)
